“Also recorded” adds a separate entry of the source. Read-outs that look alike come from different tables or passages of the source.
Columns and labels:
[1] = system: Hepatitis B virus; conditions: Chang et al., 1992; cited from earlier work
[2] = system: human immunodeficiency virus (HIV); conditions: Larder et al., 1990, cited from earlier work
[3] = system: Hepatitis B viral infections; conditions: chronic HBV infection; foscarnet in fulminant hepatitis; cited from earlier work
[4] = system: HBV; assay: Inhibition of HBV replication (secreted viral DNA, Southern analysis) in 2.2.15 cells; type: cell-based, Hepatitis B virus (in human hepatoma cell line 2.2.15); conditions: for IC50: Hepatitis B virus, 144 h, 2.2.15 cells, read-out: Anti-HBV ID50; for Activity against HBV, comparison / Inhibition of HBV DNA replication: in words
Experimental: The biological activity of the present compounds was assessed as described by Doong, S-L, et al., Proc. Natl. Acad. Sci. U.S.A 88, 8495-8499 (1991). The human hepatoma cell line carrying the HBV (designated 2.2.15) kindly provided by Dr. G. Acs was used in the study. Price, et al., Proc. Natl. Acad. Sci. U.S.A. 86, 8541 (1989). Briefly, six day-old cultures were treated with varying concentrations of the drug in the culture medium (Minimum essential medium with Earl's salts and 10% fetal bovine serum). The drug was left in the culture medium for a period of 3 days after which period the medium was aspirated and fresh medium containing the same concentration(s) of the drug was added. At the end of the subsequent 3 day period the culture medium was harvested. The culture medium was processed for obtaining the virions by the polyethylene glycol precipitation method (Doong, et al., supra). Viral DNA thus recovered from the secreted particles was subjected to Southern analysis. Inhibition of the viral replication was determined by the comparison of the viral DNA from drug-treated versus control cultures not treated with the drug.

[5] = Cellular toxicity in T-lymphoblastoic cell line (CEM), cell numbers 3 days post treatment; type: cell-based; conditions: human; CEM cells, 3 days; read-out: Cytotoxicity CEM Cells ID50
Experimental: (§1) To determine the cellular toxicity of the present compounds, the T-lymphoblastoic cell line (CEM) was used. Cells were subjected to varying concentrations of the drug(s) and cell numbers were determined 3 days post treatment by the method described by Chen, C-H and Cheng, Y-C J. Biol. Chem., 264, 11934 (1989). Concentrations of the drug which would result in 50% killing of the cell populations were determined from the plot generated by representing cell numbers corresponding to the individual drug concentrations.

[6] = system: HIV-1 (HTLV-IIIB Strain); assay: Anti-HIV drug susceptibility assay in MT-2 cells (MTT dye reduction); type: cell-based; conditions: for IC50: MT-2 cells; for Anti-HIV activity compared with ddC: in words
Experimental: Drug susceptibility assay for determining the effectiveness of the compounds of the present invention against HIV in MT-2 cells is a modification of the assay described in Mellors, et al., Molecular Pharmacology, 41, 446 (1992). Drug-mediated inhibition of virus-induced cell toxicity was measured by the A595 of MTT ([3-I 4,5-dimethyl thiazol-2-yl]-2,3-diphenyltetrazolium bromide) (Sigma M-2128). Triplicate wells of a 96 well plate which contains 1×10^4 MT2 cells (AIDS-repository) were infected with HIV-1 (HTLV-IIIB Strain-R.C. Gallo) at a multiplicity of 0.01 TCID50 /cell. MT-2 cells in RPMI 1640 media supplemented with 10% dialysized fetal bovine and 100 ug/ml Kanamycin were infected with virus and immediately added to serial dilution of the drug. After 5 days, 20 ul of MTT dye (2.5 mg/ml in PBS) was added per well. At the end of a four hour incubation period 150 ul of acidified 2-propanol with NP-40 non-ionic detergent was added. After the crystals of dye dissolve (usually 1-2 days), the plates are read on a micro-plate reader. Using this MTT-dye reduction method (as set forth by Larder, et al., Antimicrobial Agents and Chemotherapy, 34, 436 (1990), the percentage of protection can be calculated using the formula [(a-b/c-b)×100] in which a=A595 of drug treated cells, b is […] and c is the A595 of the non-drug infected cells.

[7] = system: CEM Cells; assay: Cellular toxicity in T-lymphoblastoic cell line (CEM), cell numbers 3 days post treatment; type: cell-based; conditions: in words, β-L-ddC / β-L-FddC versus ddC
Experimental: as §1

[8] = in words; cited from earlier work
[9] = in vitro; conditions: human, cem cells
Experimental: (§2) The effects of the various drug concentrations on mitochondrial DNA (mt DNA) was evaluated by the method described by Chen and Cheng, supra. CEM cells treated with varying concentrations of the drug were collected by centrifugation. After washing the cells with phosphate buffered saline, cells were lysed by suspending the cells in 10 mM Tris-HCl (pH 7.0) and repeating freeze thaw cycles. The resulting cells were then subjected to RNase A treatment at a final enzyme concentration of 10 ug/ml, followed by proteinase K treatment (100 ug/ml) for 1 hour. The DNA thus obtained by this procedure was then immobilized on nylon membrane after the addition of 0.8 vol of NaI and boiling for 10 minutes. Hybridization of the resulting DNA to a mt DNA specific probe was performed by following the method of Doong, S-L, supra and autoradiography was also performed. Quantitative estimates were obtained by scanning densitometer. The blots were stripped of the mtDNA probe and rehybridized to human Alu sequence probe to determine the amounts of DNA for normalization and estimation of absolute amounts of the mt DNA.

[10] = system: mitochondrial DNA (mt DNA)
Experimental: as §2

[11] = Human immunodeficiency virus 1, MT2, 120 h, HIV-1 HTLV-IIIB, Table 1, read-out: Anti-HIV ID50
[12] = Human immunodeficiency virus 1, IIIB, MT2, 120 h, read-out: ID50 concentration required to inhibit viral replication (HIV)

Molecule: Nc1nc(=O)n([C@@H]2CS[C@H](CO)O2)cc1F (relative stereo) [(±)5-FSddC]
- Activity against Hepatitis B virus in culture [1]: potent activity

Molecule: Nc1ccn([C@@H]2CS[C@H](CO)O2)c(=O)n1 (relative stereo) [(±) SddC, (+) and (-)-2',3'-Dideoxy-3'-thiacytidine]
- Activity against Hepatitis B virus in culture [1]: potent inhibitors of Hepatitis B virus

Molecule: Nc1ccn([C@H]2CS[C@@H](CO)O2)c(=O)n1 (stereo in doubt) [(-)isomer, (-)-2',3'-Dideoxy-3'-thiacytidine]
- Activity against Hepatitis B virus in culture [1]: potent activity
- Toxicity [1]: relatively low toxicity

Molecule: [N-]=[N+]=N[C@H]1C[C@H](n2ccc(=O)[nH]c2=O)O[C@@H]1CO [3'-azido-2',3'-dideoxyuridine]
- Activity against human immunodeficiency virus [2]: significant activity

Molecule: Nc1ncnc2c1ncn2[C@H]1C[C@H](F)[C@@H](CO)O1 [3'-fluoro-2',3'-dideoxyadenosine]
- Activity against human immunodeficiency virus [2]: significant activity

Molecule: Cc1cn([C@H]2C[C@H](F)[C@@H](CO)O2)c(=O)[nH]c1=O [3'-fluoro-3'-deoxythymidine]
- Activity against human immunodeficiency virus [2]: significant activity

Molecule: Cc1cn([C@H]2C[C@H](N=[N+]=[N-])[C@@H](CO)O2)c(=O)[nH]c1=O [AZT, 3'-azido-3'deoxythymidine]
- Success of therapy of hepatitis B [3]: little, if any, success

Molecule: Nc1nc2c(ncn2[C@H]2C=C[C@@H](CO)C2)c(=O)[nH]1 [Carbovir, carbocyclic analog of 2',3'-dideoxy-2',3'-didehydroguanosine]
- Activity against human immunodeficiency virus [2]: significant activity

Molecule: Nc1ccn([C@H]2C=C[C@@H](CO)O2)c(=O)n1 [Compound D4C, 2',3'-dideoxy-2',3'-didehydrocytidine]
- Activity against human immunodeficiency virus [2]: significant activity

Molecule: Cc1cn([C@H]2C=C[C@@H](CO)O2)c(=O)[nH]c1=O [Compound D4T, 3'-deoxy-2',3'-didehydrothymidine]
- Activity against human immunodeficiency virus [2]: significant activity

Molecule: OC[C@@H]1CC[C@H](n2cnc3c(O)ncnc32)O1 [DDI, 2',3'-dideoxyinosine]
- Activity against human immunodeficiency virus [2]: significant activity

Molecule: Nc1nc2c(ncn2COCCO)c(=O)[nH]1 [acyclovir]
- Success of therapy of hepatitis B [3]: little, if any, success

Molecule: Nc1ncnc2c1ncn2[C@@H]1O[C@H](CO)[C@@H](O)[C@@H]1O [adenine arabinoside]
- Success of therapy of hepatitis B [3]: limited success

Molecule: Nc1nc(=O)n([C@H]2CC[C@H](CO)O2)cc1F [alpha-L-FddC, 1(2,3-dideoxy-alpha-L-ribofuranosyl)-5-fluorocytosine]
- IC50 [4]: 500 nM
- CC50 at 72 h [5]: > 100000 nM
- IC50 [6, 11]: 300 nM

Molecule: Nc1ccn([C@H]2CC[C@H](CO)S2)c(=O)n1 [alpha-L-ddSC, 1(2,3-dideoxy-4-thio-alpha-L-ribofuranosyl) cytosine]
- IC50 [4]: > 500 nM
- CC50 at 72 h [5]: > 100000 nM
- IC50 [6, 11]: > 100000 nM

Molecule: Nc1ncnc2c1ncn2[C@@H]1O[C@H](COP(=O)(O)O)[C@@H](O)[C@@H]1O [ara-AMP]
- Success of therapy of hepatitis B [3]: limited success

Molecule: Nc1ccn([C@H]2CC[C@@H](CO)O2)c(=O)n1 [ddC, 1-(2,3-dideoxy-beta-D-ribofuranosyl)cytosine, reference compound]
- IC50 [4]: 2800 nM
- CC50 at 72 h [5]: 28000 nM
- Cellular cytotoxicity, comparison with ddC [7]: much more cytotoxic; also recorded: more cytotoxic than β-L-FddC
- IC50 [6, 12]: 28 nM
- Anti-HIV activity compared with ddC [6]: less active against HIV
- Activity against human immunodeficiency virus [2]: among the most potent inhibitors of HIV
- Activity against human immunodeficiency virus ([2]; listed as DDC): significant activity
- Dose limiting toxicity [8]: severe neuropathy
- IC50 [9]: 22 nM

Molecule: O=C(O)P(=O)(O)O [foscarnet]
- Success of therapy of hepatitis B [3]: little, if any, success

Molecule: Nc1nc(=O)n([C@@H]2CC[C@H](CO)O2)cc1F [β-L-FddC, 1-(2,3-dideoxy-beta-L-ribofuranosyl)-5-fluorocytosine]
- IC50 [4]: 10 nM
- Activity against HBV, comparison [4]: several fold higher activity against HBV
- Inhibition of HBV DNA replication [4]: efficiently inhibited
- CC50 at 72 h [5]: 67000 nM
- Cellular cytotoxicity, comparison with ddC [7]: considerably less
- Difference of anti-HIV ID50, β-L-FddC versus ddC ([6]; 0.007 vs 0.028 micromolar): 4 fold
- IC50 [6, 12]: 7 nM
- Anti-HIV activity compared with ddC [6]: significantly more effective than ddC; also recorded: several fold higher activity against HIV
- Effect on host mitochondrial DNA [10]: relatively little effect
- Toxicity associated with dose limiting neuropathy [10]: virtually no toxicity associated with dose limiting neuropathy
- IC50 [9]: > 100000 nM

Molecule: Nc1ccn([C@@H]2CC[C@H](CO)O2)c(=O)n1 [β-L-ddC, 1-(2,3-dideoxy-beta-L-ribofuranosyl)cytosine]
- IC50 [4]: 10 nM
- Activity against HBV, comparison [4]: several fold higher activity against HBV
- Inhibition of HBV DNA replication [4]: efficiently inhibited
- CC50 at 72 h [5]: 70000 nM
- Cellular cytotoxicity, comparison with ddC [7]: considerably less
- IC50 [6, 11]: 350 nM
- IC50 [9]: > 100000 nM

Molecule: Nc1ccn([C@@H]2CC[C@H](CO)S2)c(=O)n1 [β-L-ddSC, 1-(2,3-dideoxy-4-thio-beta-L-ribofuranosyl)cytosine]
- IC50 [4]: > 500 nM
- CC50 at 72 h [5]: > 100000 nM
- IC50 [6, 11]: 70000 nM

Molecule: interferon alpha
- Success of therapy of hepatitis B [3]: limited success

Source: US5627160A, “L-2',3'-dideoxy nucleoside analogs as anti-hepatitis B (HBV) and anti-HIV agents” (priority 1993, dated 1997)
